According to US11753407B2, “Compounds for treating spinal muscular atrophy” (PTC Therapeutics, Inc., priority 2012, dated 2023):

Assays:
[1] = tested on: Smn protein in SMA patient fibroblast cells (GM03813); experiment: Smn protein assay in cultured cells (SMN HTRF); type: cell-based, human; conditions: SMA patient fibroblast cells, 48 hours; for EC1.5x for Smn protein expression: 7-point concentration curve, SMN HTRF, concentration producing 1.5 times Smn protein vs DMSO vehicle control; for maximum fold (Fold) increase of Smn protein: 7-point concentration data, fold relative to vehicle control
Outline: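 Fibroblasts, SMA patient; 5,000 cells/well; 7-pt curve, 3.16-fold serial dilution; 48 h, 37 °C, 5% CO2; RIPA lysis 1 h RT; anti-SMN d2 + kryptate overnight RT; HTRF 665/620 nm; fold vs DMSO; EC1.5×, max fold.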

[2] = tested on: SMN2 minigene mRNA (SMN2-A minigene) in HEK293H cells; experiment: SMN2 minigene mRNA splicing RT-qPCR assay in cultured cells; type: cell-based, human; conditions: Homo sapiens, HEK293-H; concentration increasing full length SMN2 mRNA 1.5-fold relative to vehicle-treated cells; HEK293H cells with SMN2-A minigene, 24 hours, 7-point concentration data; read-out: EC1.5x for production of full length SMN2 mRNA
Outline: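 Stable SMN2-A minigene HEK293H; cpd 7-pt 3.16-fold series, 200× in DMSO, 24 h, 37 °C, n=2. Lysates → multiplex RT-qPCR (minigene FL + GAPDH), efficiency-corrected ΔΔCt vs vehicle. EC1.5× = 1.5-fold FL mRNA gain.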

Structure (SMILES)	EC1.5x for Smn protein expression [1]	maximum fold (Fold) increase of Smn protein [1]	melting point [°C]	EC (1.5-fold increase) [2] [µM]
Cc1cn2cc(-c3cc(=O)n4cc(N5CCC(N(C)C)CC5)ccc4n3)ccc2n1 [Compound 432, 7-[4-(dimethylamino)piperidin-1-yl]-2-(2-methylimidazo[1,2-a]pyridin-6-yl)-4H-pyrido[1,2-a]pyrimidin-4-one]	**** (an EC1.5x≤0.3 μM is indicated by four stars (****))	***** (a fold increase >1.65 is indicated by five stars (*****))	204 to 206	< 0.1
COc1ccc(-c2cc(=O)n3cc(N4CCC(NCCO)CC4)cc(C)c3n2)cc1OC [Compound 433, 2-(3,4-dimethoxyphenyl)-7-{4-[(2-hydroxyethyl)amino]piperidin-1-yl}-9-methyl-4H-pyrido[1,2-a]pyrimidin-4-one]	–	*** (a fold increase between >1.35 and ≤1.5 is indicated by three stars (***))	185 to 193	< 0.1
CCc1cc(C2CCN(C)CC2)cn2c(=O)cc(-c3ccc(OC)c(OC)c3)nc12 [Compound 434, 2-(3,4-dimethoxyphenyl)-9-ethyl-7-(1-methylpiperidin-4-yl)-4H-pyrido[1,2-a]pyrimidin-4-one]	–	** (a fold increase between >1.2 and ≤1.35 is indicated by two stars (**))	146	0.3 to 1
CCN(CC)C1CCN(c2cc(C)c3nc(-c4ccc(OC)c(OC)c4)cc(=O)n3c2)CC1 [Compound 435, 7-[4-(diethylamino)piperidin-1-yl]-2-(3,4-dimethoxyphenyl)-9-methyl-4H-pyrido[1,2-a]pyrimidin-4-one]	–	*** (a fold increase between >1.35 and ≤1.5 is indicated by three stars (***))	149 to 155	0.1 to 0.3
CCc1cc(C2CCN(CC)CC2)cn2c(=O)cc(-c3ccc(OC)c(OC)c3)nc12 [Compound 436, 2-(3,4-dimethoxyphenyl)-9-ethyl-7-(1-ethylpiperidin-4-yl)-4H-pyrido[1,2-a]pyrimidin-4-one]	–	** (a fold increase between >1.2 and ≤1.35 is indicated by two stars (**))	157 to 162	0.3 to 1
Cc1cn2cc(-c3cc(=O)n4cc(N5CCC(N6CCCC6)CC5)ccc4n3)ccc2n1 [Compound 437, 2-(2-methylimidazo[1,2-a]pyridin-6-yl)-7-[4-(pyrrolidin-1-yl)piperidin-1-yl]-4H-pyrido[1,2-a]pyrimidin-4-one]	*** (an EC1.5× between >0.3 μM and ≤1 μM is indicated by three stars (***))	**** (a fold increase between >1.5 and ≤1.65 is indicated by four stars (****))	230 to 232	0.1 to 0.3
Cc1cn2cc(-c3cc(=O)n4cc(C5CCNCC5)ccc4n3)ccc2n1 [Compound 438, 2-(2-methylimidazo[1,2-a]pyridin-6-yl)-7-(piperidin-4-yl)-4H-pyrido[1,2-a]pyrimidin-4-one]	**** (an EC1.5x≤0.3 μM is indicated by four stars (****))	***** (a fold increase >1.65 is indicated by five stars (*****))	298 to 300	< 0.1
Cc1nc2ccc(-c3cc(=O)n4cc(C5CCN(C)CC5)ccc4n3)cc2s1 [Compound 439, 2-(2-methyl-1,3-benzothiazol-6-yl)-7-(1-methylpiperidin-4-yl)-4H-pyrido[1,2-a]pyrimidin-4-one]	** (an EC1.5× between >1 μM and ≤3 μM is indicated by two stars (**))	*** (a fold increase between >1.35 and ≤1.5 is indicated by three stars (***))	240 to 242	0.1 to 0.3
Cc1cn2nc(-c3cc(=O)n4cc(N5CCN(C)CC5)ccc4n3)cc2cn1 [Compound 440, 7-(4-methylpiperazin-1-yl)-2-(6-methylpyrazolo[1,5-a]pyrazin-2-yl)-4H-pyrido[1,2-a]pyrimidin-4-one]	**** (an EC1.5x≤0.3 μM is indicated by four stars (****))	**** (a fold increase between >1.5 and ≤1.65 is indicated by four stars (****))	230 to 240	< 0.1
Cc1cn2nc(-c3cc(=O)n4cc(N5CCN[C@@H](C)C5)ccc4n3)cc2cn1 [Compound 441, 7-[(3S)-3-methylpiperazin-1-yl]-2-(6-methylpyrazolo[1,5-a]pyrazin-2-yl)-4H-pyrido[1,2-a]pyrimidin-4-one]	**** (an EC1.5x≤0.3 μM is indicated by four stars (****))	***** (a fold increase >1.65 is indicated by five stars (*****))	235 to 240	< 0.1
Cc1cn2nc(-c3cc(=O)n4cc(N5C[C@@H](C)N[C@@H](C)C5)ccc4n3)cc2cn1 [Compound 442, 7-[(3R,5S)-3,5-dimethylpiperazin-1-yl]-2-(6-methylpyrazolo[1,5-a]pyrazin-2-yl)-4H-pyrido[1,2-a]pyrimidin-4-one]	**** (an EC1.5x≤0.3 μM is indicated by four stars (****))	***** (a fold increase >1.65 is indicated by five stars (*****))	258 to 260	< 0.1
CN(C)c1ccc(-c2cc(=O)n3cc(C4=CCNCC4)ccc3n2)cn1 [Compound 444, 2-[6-(dimethylamino)pyridin-3-yl]-7-(1,2,3,6-tetrahydropyridin-4-yl)-4H-pyrido[1,2-a]pyrimidin-4-one]	** (an EC1.5× between >1 μM and ≤3 μM is indicated by two stars (**))	*** (a fold increase between >1.35 and ≤1.5 is indicated by three stars (***))	255 to 257	0.3 to 1
CCN(CC)C1CCN(c2ccc3nc(-c4ccc5nc(C)cn5c4)cc(=O)n3c2)CC1 [Compound 445, 7-[4-(diethylamino)piperidin-1-yl]-2-(2-methylimidazo[1,2-a]pyridin-6-yl)-4H-pyrido[1,2-a]pyrimidin-4-one]	*** (an EC1.5× between >0.3 μM and ≤1 μM is indicated by three stars (***))	*** (a fold increase between >1.35 and ≤1.5 is indicated by three stars (***))	208 to 210	< 0.1
COc1ccc(-c2cc(=O)n3cc(N4CCC(N(C)CCO)CC4)cc(C)c3n2)cc1OC [Compound 446, 2-(3,4-dimethoxyphenyl)-7-{4-[(2-hydroxyethyl)(methyl)amino]piperidin-1-yl}-9-methyl-4H-pyrido[1,2-a]pyrimidin-4-one]	** (an EC1.5× between >1 μM and ≤3 μM is indicated by two stars (**))	*** (a fold increase between >1.35 and ≤1.5 is indicated by three stars (***))	164 to 171	< 0.1
CCc1cc(N2CCN[C@H](C)C2)cn2c(=O)cc(-c3ccc(OC)c(OC)c3)nc12 [Compound 447, 2-(3,4-dimethoxyphenyl)-9-ethyl-7-[(3R)-3-methylpiperazin-1-yl]-4H-pyrido[1,2-a]pyrimidin-4-one]	–	* (A maximum fold increase of ≤1.2 is indicated by one star (*))	140 to 147	0.1 to 0.3
Cc1cn2cc(-c3cc(=O)n4cc(C5CCN(C)CC5)ccc4n3)ccc2n1 [Compound 448, 2-(2-methylimidazo[1,2-a]pyridin-6-yl)-7-(1-methylpiperidin-4-yl)-4H-pyrido[1,2-a]pyrimidin-4-one]	**** (an EC1.5x≤0.3 μM is indicated by four stars (****))	***** (a fold increase >1.65 is indicated by five stars (*****))	218 to 220	< 0.1
CN1CC=C(c2ccc3nc(-c4ccc5c(cnn5C)c4)cc(=O)n3c2)CC1 [Compound 449, 2-(1-methyl-1H-indazol-5-yl)-7-(1-methyl-1,2,3,6-tetrahydropyridin-4-yl)-4H-pyrido[1,2-a]pyrimidin-4-one]	**** (an EC1.5x≤0.3 μM is indicated by four stars (****))	**** (a fold increase between >1.5 and ≤1.65 is indicated by four stars (****))	148 to 150	< 0.1
CN1CC=C(c2ccc3nc(-c4ccc(N(C)C)nc4)cc(=O)n3c2)CC1 [Compound 450, 2-[6-(dimethylamino)pyridin-3-yl]-7-(1-methyl-1,2,3,6-tetrahydropyridin-4-yl)-4H-pyrido[1,2-a]pyrimidin-4-one]	–	** (a fold increase between >1.2 and ≤1.35 is indicated by two stars (**))	214 to 216	0.3 to 1
CCN(CC)C1CCN(c2ccc3nc(-c4cc5c(C)nc(C)cn5n4)cc(=O)n3c2)CC1 [Compound 451, 7-[4-(diethylamino)piperidin-1-yl]-2-(4,6-dimethylpyrazolo[1,5-a]pyrazin-2-yl)-4H-pyrido[1,2-a]pyrimidin-4-one]	*** (an EC1.5× between >0.3 μM and ≤1 μM is indicated by three stars (***))	***** (a fold increase >1.65 is indicated by five stars (*****))	232 to 235	< 0.1
